Laboratory results published in PubChem BioAssay (NCI).
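Dose response: 5 concentrations. Exposure: 48 h. Format: 96-well plates. Endpoint: linear interpolation; highest concentration if not reached. The concentration for full growth arrest is given as TGI.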 Where a SMILES comes first, the peptide text is derived from it. [ ]: non-standard residue; d: D form. Hiv = CC(C)[C@H](O)C(=O)O

Legend:
Experiment in all cases: NCI anticancer screen, dose series, 48 h
786-0 renal = tested on: 786-0 renal
A498 renal = tested on: A498 renal
A549 NSCLC = tested on: A549 NSCLC
ACHN renal = tested on: ACHN renal
BT-549 breast = tested on: BT-549 breast
CAKI-1 renal = tested on: CAKI-1 renal
CCRF-CEM leukemia = tested on: CCRF-CEM leukemia
COLO 205 colon = tested on: COLO 205 colon
DU-145 prostate = tested on: DU-145 prostate
EKVX NSCLC = tested on: EKVX NSCLC
HCC-2998 colon = tested on: HCC-2998 colon
HCT-116 colon = tested on: HCT-116 colon
HCT-15 colon = tested on: HCT-15 colon
HOP-62 NSCLC = tested on: HOP-62 NSCLC
HOP-92 NSCLC = tested on: HOP-92 NSCLC
HT29 colon = tested on: HT29 colon
IGROV1 ovarian = tested on: IGROV1 ovarian
K-562 leukemia = tested on: K-562 leukemia
KM12 colon = tested on: KM12 colon
LOX IMVI melanoma = tested on: LOX IMVI melanoma
M14 melanoma = tested on: M14 melanoma
MALME-3M melanoma = tested on: MALME-3M melanoma
MCF7 breast = tested on: MCF7 breast
MDA-MB-231 breast = tested on: MDA-MB-231 breast
MDA-MB-435 = tested on: MDA-MB-435
MDA-N = tested on: MDA-N
MOLT-4 leukemia = tested on: MOLT-4 leukemia
NCI-H226 lung = tested on: NCI-H226 lung
NCI-H23 lung = tested on: NCI-H23 lung
NCI-H460 lung = tested on: NCI-H460 lung
NCI/ADR-RES ovarian = tested on: NCI/ADR-RES ovarian
OVCAR-3 ovarian = tested on: OVCAR-3 ovarian
OVCAR-4 ovarian = tested on: OVCAR-4 ovarian
OVCAR-5 ovarian = tested on: OVCAR-5 ovarian
OVCAR-8 ovarian = tested on: OVCAR-8 ovarian
PC-3 prostate = tested on: PC-3 prostate
RPMI-8226 leukemia = tested on: RPMI-8226 leukemia
RXF 393 renal = tested on: RXF 393 renal
SF-268 CNS = tested on: SF-268 CNS
SF-295 CNS = tested on: SF-295 CNS
SK-MEL-2 melanoma = tested on: SK-MEL-2 melanoma
SK-MEL-28 melanoma = tested on: SK-MEL-28 melanoma
SK-MEL-5 melanoma = tested on: SK-MEL-5 melanoma
SK-OV-3 ovarian = tested on: SK-OV-3 ovarian
SN12C renal = tested on: SN12C renal
SNB-19 CNS = tested on: SNB-19 CNS
SNB-75 CNS = tested on: SNB-75 CNS
SR leukemia = tested on: SR leukemia
SW-620 colon = tested on: SW-620 colon
T-47D breast = tested on: T-47D breast
TK-10 renal = tested on: TK-10 renal
U251 CNS = tested on: U251 CNS
UACC-257 melanoma = tested on: UACC-257 melanoma
UACC-62 melanoma = tested on: UACC-62 melanoma
UO-31 renal = tested on: UO-31 renal
HL-60(TB) leukemia = tested on: HL-60(TB) leukemia
HS 578T breast = tested on: HS 578T breast
SF-539 CNS = tested on: SF-539 CNS
NCI-H522 lung = tested on: NCI-H522 lung

Measured: TGI

O=C(N/N=C/c1ccc(Cl)cc1)c1ccccc1Nc1ccccc1C(=O)N/N=C/c1ccc(Cl)cc1
not listed: HL-60(TB) leukemia | HS 578T breast | SF-539 CNS | NCI-H522 lung
> 100 µM: all other assays above

COC(=O)/C=C(\C)CC/C=C(\C)CCC(O)C(C)(C)O (centres undefined)
98.3 µM: NCI-H23 lung
37.5 µM: SN12C renal
47.2 µM: HCC-2998 colon
33.4 µM: SK-MEL-5 melanoma
44.9 µM: HCT-116 colon
44.6 µM: SR leukemia
28.4 µM: KM12 colon
41.8 µM: CCRF-CEM leukemia
38.3 µM: COLO 205 colon
39 µM: MOLT-4 leukemia
61.6 µM: SF-295 CNS
57.8 µM: MDA-N
76.7 µM: K-562 leukemia
38.2 µM: SK-MEL-28 melanoma
41.5 µM: MALME-3M melanoma
67 µM: OVCAR-8 ovarian
36.3 µM: SK-MEL-2 melanoma
79.3 µM: U251 CNS
59.9 µM: RXF 393 renal
35.9 µM: SF-539 CNS
75 µM: ACHN renal
78 µM: HOP-62 NSCLC
42.5 µM: 786-0 renal
37.8 µM: NCI-H460 lung
84 µM: BT-549 breast
42.2 µM: HL-60(TB) leukemia
48 µM: HCT-15 colon
48.5 µM: CAKI-1 renal
81.3 µM: M14 melanoma
77.9 µM: UACC-62 melanoma
31.5 µM: LOX IMVI melanoma
65.3 µM: OVCAR-3 ovarian
52.5 µM: NCI/ADR-RES ovarian
98.5 µM: HS 578T breast
53.5 µM: SW-620 colon
30.8 µM: PC-3 prostate
not listed: DU-145 prostate | MDA-MB-435 | RPMI-8226 leukemia | SF-268 CNS | T-47D breast | NCI-H522 lung
> 100 µM: all other assays above

COc1cc2c(cc1O)C1CC(CC3CCCCN31)OC(=O)/C=C\c1ccc(O)c-2c1 (centres undefined)
66.4 µM: CAKI-1 renal
83.1 µM: COLO 205 colon
53.2 µM: MCF7 breast
60.2 µM: MOLT-4 leukemia
57.5 µM: HS 578T breast
32.3 µM: LOX IMVI melanoma
50.4 µM: HT29 colon
40.2 µM: MALME-3M melanoma
64.8 µM: MDA-MB-231 breast
72.3 µM: SF-268 CNS
54.2 µM: OVCAR-8 ovarian
62 µM: OVCAR-3 ovarian
34.2 µM: SNB-75 CNS
65 µM: NCI-H522 lung | UO-31 renal
72.1 µM: SK-MEL-2 melanoma
97.9 µM: HOP-92 NSCLC
45.2 µM: UACC-62 melanoma
96.7 µM: SK-OV-3 ovarian
89.8 µM: RPMI-8226 leukemia
36 µM: HCC-2998 colon
75.7 µM: NCI/ADR-RES ovarian
85.2 µM: SK-MEL-28 melanoma
58.3 µM: HL-60(TB) leukemia
90.5 µM: CCRF-CEM leukemia
89.6 µM: DU-145 prostate
34.6 µM: SF-539 CNS
67.5 µM: BT-549 breast
39.7 µM: UACC-257 melanoma
29.1 µM: SF-295 CNS
46.6 µM: M14 melanoma
45.7 µM: T-47D breast
31.4 µM: SK-MEL-5 melanoma
50.8 µM: MDA-MB-435
95.8 µM: TK-10 renal
34.8 µM: KM12 colon
99.5 µM: PC-3 prostate
30.6 µM: A498 renal
not listed: HOP-62 NSCLC | RXF 393 renal | SR leukemia
> 100 µM: all other assays above

CCCCCC1=C2C(c3ccc(OC)cc3)=C(N)C(c3ccc(OC)cc3)=C3NC(=O)C(C=C1)C32 (centres undefined)
60.7 µM: HOP-92 NSCLC
96.8 µM: NCI-H226 lung
38.9 µM: SF-268 CNS
54.1 µM: RXF 393 renal
68 µM: NCI-H522 lung
53.7 µM: MALME-3M melanoma
not listed: SR leukemia | HS 578T breast | SF-539 CNS
> 100 µM: all other assays above

CCO[C@]12CCC[C@H]1[C@@H]1C(=O)c3ccccc3C(=O)C1=C(C)O2
94.7 µM: K-562 leukemia
43 µM: MDA-N
59.1 µM: SR leukemia
44.7 µM: LOX IMVI melanoma
50.3 µM: OVCAR-3 ovarian
56.4 µM: RXF 393 renal
35.8 µM: MCF7 breast
97.9 µM: OVCAR-4 ovarian
not listed: BT-549 breast | HCT-116 colon | NCI-H226 lung
> 100 µM: all other assays above

O=c1c2n[nH]nc2nc2n1CC(c1ccccc1)S2 (centres undefined)
77.6 µM: CAKI-1 renal
94.9 µM: RXF 393 renal
not listed: HOP-92 NSCLC | HT29 colon | M14 melanoma | PC-3 prostate | SK-MEL-2 melanoma | SR leukemia | HS 578T breast | NCI-H522 lung
> 100 µM: all other assays above

CC(C)[C@@H]1OC(=O)[C@@H](C)NC(=O)[C@@H]2CCCN2C1=O (cyclo([Hiv]-Pro-[dA]))
not listed: BT-549 breast | K-562 leukemia | RPMI-8226 leukemia | SNB-75 CNS | U251 CNS | UO-31 renal | NCI-H522 lung
> 100 µM: all other assays above
